From patent US6689379B1, “Transdermal therapeutic system with neutralized acrylic adhesive patch” (priority 1999, dated 2004) come the findings set out here.

The data set can be described thus: EVA copolymer film permeation (modified Franz cell), release of active substance from pressure-sensitive adhesive film. The class given is in vitro ADME. To be noted: neutralization degrees 0 to 100% (KOH); EVA membrane; FIGS. 4, 5 and 6. As to the method:
Examinations on the thermodynamics of a model of ethylene vinyl acetate (EVA) copolymer film permeation
For three basic pharmaceutical active agents, the release behaviour from an acid polyacrylate pressure-sensitive adhesive film in dependence from the neutralization of the adhesive and from the reagent used for this purpose was examined. All tests on EVA membrane were carried out with n=3 samples.
To this end, the active substance-containing pressure-sensitive adhesive films were stuck on an EVA film as carrier membrane, and the amount of active agent released over time through this membrane to an aqueous medium buffered to pH 5.5 and located on the opposite side was quantified by appropriate HPLC methods. […] Since in the embodiment examples the active substance represents the only component which is low-molecular and capable of migration, it is the tendency of exclusively this active substance to exudate from the polymer matrix of the pressure-sensitive adhesive and to migrate into the acceptor medium after passing through the EVA membrane which is recorded.
Independently of the permeation properties of human skin for such an active substance, the release tendency of the system in respect of the active substance as measured here is the most essential impetus for transdermal therapy by means of such a system. […]

Regarding `CCN(C)C(=O)Oc1cccc([C@H](C)N(C)C)c1` [rivastigmin], the “dependence of the permeated active substance amount / release rate on the neutralization degree” value was “strong dependence of the effect from the neutralization degree”.
